Patent US12391674B2, “Heterocyclic compounds for the treatment of epilepsy” (OTSUKA PHARMACEUTICAL CO., LTD., priority 2018, dated 2025)
Structures can show the parent of a compound that is named as a salt.

Tested on: DBA/2 mice
Test: Audiogenic seizure model
Format: in vivo
Conditions: Mus musculus, DBA/2 mice, oral, auditory stimulation 1 hour after administration, read-out: Seizure suppression
Procedure: The animal model used in this test is a phenotype model for partial seizure (including secondary generalized seizure) and generalized tonic-clonic seizure, and has high clinical predictability. This test was performed in accordance with the report of De Sarro et al (Br J Pharmacol. 1988 February; 93 (2): 247-56. Anticonvulsant effects of some calcium entry blockers in DBA/2 mice. De Sarro G B, Meldrum B S, Nistico G.).
In this test example, the example compounds shown in Tables 3-1 to 3-3 below were used as test compounds.
The test compounds were suspended in 5% gum arabic/distilled water (w/v), and administered by forced oral administration to male and female DBA/2 mice (Japan SLC, Inc., 3 weeks old, 8 per group) at a dose of 30 mg/kg. After one hour of the oral administration of the test compound, each mouse was placed in a transparent acrylic cylinder 30 cm high and 23 cm in diameter, and 30 seconds were allowed for habituation. Then, they were exposed to auditory stimulation (12.6 kHz, 100-110 dB) for 1 minute or until a tonic seizure occurred.
The seizure response was assessed using the following scale, 0: no seizure, 1: wild running, 2: clonic seizure, 3: tonic seizure and 4: respiratory arrest. The maximum response was recorded as the seizure severity score.
The seizure suppression rate for each compound administration group was calculated according to the following formula.
Here, a rate of seizure suppression of 90% or more was expressed as “A”, a rate of seizure suppression of 70% or more and less than 90% was expressed as “B”, and a rate of seizure suppression of 50% or more and less than 70% was expressed as “C”.

Structure (SMILES)	inhibition in vivo at 30 mg/kg	inhibition in vivo at 5 mg/kg
Cc1cn2cc(-c3cnc(Oc4ccccc4F)nc3)ccc2n1 [Example 178]	> 90%	
O=C1Cc2cc(-c3cnc(Oc4ccccc4F)nc3)ccc2N1 [Example 264]	> 90%	> 90%
Fc1cccc(Oc2ncc(-c3ccn4cnnc4c3)cn2)c1 [Example 212]	> 90%	
Nc1ccc(-c2cnc(Oc3c(F)cccc3F)nc2)nn1 [Example 39]	> 90%	
COc1ccc(-c2cnc(Oc3cccc(F)c3F)nc2)nn1 [Example 68]	> 90%	
Cc1cnc2ccc(-c3cnc(Oc4ccccc4F)nc3)cn12 [Example 191]	> 90%	
[O-][n+]1cccc(-c2cnc(Oc3cccc(F)c3)nc2)c1 [Example 61]	> 90%	
Clc1ccc(-c2cnc(Oc3ccccc3)nc2)cn1 [Example 51]	> 90%	
Cc1ncccc1-c1cnc(Oc2cccc(C(F)(F)F)c2)nc1 [Example 76]	> 90%	
Fc1ccccc1Oc1ncc(-c2ccc3cnc(C(F)(F)F)n3c2)cn1 [Example 286]	> 90%	
Fc1ccc(Oc2ncc(-c3ccc4ccnn4c3)cn2)cc1 [Example 154]	> 90%	
[O-][n+]1cccc(-c2cnc(Oc3ccccc3F)nc2)c1 [Example 60, 3-(2-(2-Fluorophenoxy)Pyrimidin-5-Yl)Pyridine 1-Oxide]	> 90%	
c1ccc(Oc2ncc(-c3ccc4[nH]cnc4c3)cn2)cc1 [Example 257, 5-(2-Phenoxypyrimidin-5-Yl)-1H-Benzo[d]Imidazole Oxalate]	> 90%	
Fc1ccc(Oc2ncc(-c3ccc4nccn4c3)cn2)cc1F [Example 168]		> 90%
O=C1Nc2ccc(-c3cnc(Oc4ccccc4)nc3)cc2C1=O [Example 271]	> 90%	
Nc1cn2cc(-c3cnc(Oc4ccccc4)nc3)ccc2n1 [Example 140]	> 90%	
Fc1ccccc1Oc1ncc(-c2ccc3ncnn3c2)cn1 [Example 144]	> 90%	
Cc1cn2ccc(-c3cnc(Oc4cccc(F)c4)nc3)cc2n1 [Example 183]	> 90%	
Cc1cnc2ccc(-c3cnc(Oc4ccc(F)cc4)nc3)cn12 [Example 193]	> 90%	
Cc1ccc(-c2cnc(Oc3ccccc3F)nc2)nn1 [Example 25]	> 90%	
Cc1nc2cc(-c3cnc(Oc4ccc(F)cc4)nc3)ccn2c1C [Example 207]	> 90%	

Structure (SMILES)	inhibition in vivo at 30 mg/kg	inhibition in vivo at 5 mg/kg
Fc1cccc(Oc2ncc(-c3cn4ccnc4cn3)cn2)c1 [Example 150]	> 90%	
c1ccc(Oc2ncc(-c3ccnc4[nH]ccc34)cn2)cc1 [Example 138]	> 90%	
c1ccc(Oc2ncc(-c3cnc4[nH]ncc4c3)cn2)cc1 [Example 133]	> 90%	
Fc1ccc(Oc2ncc(N3CCOCC3)cn2)cc1 [Example 225]	> 90%	
Cc1ccc(-c2cnc(Oc3ccccc3)nc2)c(C)n1 [Example 70]	> 90%	
O=C1CCN(c2ccc(Cc3ccc(F)cc3)cc2)C(=O)N1 [Example 338]	50 to 70%	
O=C1CCN(c2ccc(Oc3cccnc3)cc2)C(=O)N1 [Example 318]	50 to 70%	
Cc1c(-c2cnc(Oc3ccc(F)cc3)nc2)ccc2nccn12 [Example 201]	> 90%	
Cc1nc2cc(-c3cnc(Oc4cccc(F)c4)nc3)ccn2c1C [Example 206]	> 90%	
Cc1cc(Oc2cccc(C(F)(F)F)c2)ccc1N1CCC(=O)NC1=O [Example 335]	70 to 90%	
Nc1ccc(-c2cnc(Oc3cc(F)ccc3F)nc2)cn1 [Example 84, 5-(2-(2,5-Difluorophenoxy)Pyrimidin-5-Yl)Pyridin-2-Amine]	> 90%	
c1ccc(Oc2ncc(-c3ccc4ccncc4c3)cn2)cc1 [Example 252]	> 90%	
O=C1CCc2ccc(-c3cnc(Oc4ccccc4)nc3)cc2N1 [Example 246]	> 90%	
Nc1cc(-c2cnc(Oc3ccc(F)cc3)nc2)ccn1 [Example 79]	> 90%	
c1ccc(Oc2ncc(-c3cnc4nccn4c3)cn2)cc1 [Example 128]	> 90%	
O=C1Cc2cc(-c3cnc(Oc4ccc(F)cc4)nc3)ccc2N1 [Example 266]	> 90%	
c1ccc(Oc2ncc(-c3ccc4ncccc4c3)cn2)cc1 [Example 250]	> 90%	
N#Cc1cccc(Oc2ncc(-c3ccc(=O)[nH]n3)cn2)c1 [Example 112]	> 90%	
Cc1cc(Oc2ccccc2)ccc1N1CCC(=O)NC1=O [Example 324]	50 to 70%	
c1ccc(Oc2ncc(-c3ccc4nccnc4c3)cn2)cc1 [Example 253]	> 90%	
COCc1cn2cc(-c3cnc(Oc4cccc(F)c4)nc3)ccc2n1 [Example 210]	> 90%	

Structure (SMILES)	inhibition in vivo at 30 mg/kg	inhibition in vivo at 5 mg/kg
Nc1nccc(-c2cnc(Oc3ccccc3)nc2)n1 [Example 75]	> 90%	
c1ccc(Oc2ncc(-c3ccncc3)cn2)cc1 [Example 9]		> 90%
O=C1CCN(c2ccc(Oc3cccc(F)n3)cc2)C(=O)N1 [Example 321, 1-[4-(6-Fluoropyridin-2-Yloxy)Phenyl]Dihydropyrimidine-2,4 (1H,3H)-Dione]	50 to 70%	
COc1nc(Oc2ccccc2)ncc1-c1ccc2c(c1)CC(=O)N2 [Example 274]	> 90%	
O=C1CCN(c2ccc(Oc3cc(F)cc(F)c3)cc2)C(=O)N1 [Example 344]	50 to 70%	
O=c1ccc(-c2cnc(Oc3cccc(Cl)c3)nc2)n[nH]1 [Example 111]	> 90%	
Nc1ccc(-c2cnc(Oc3ccc(F)cc3)nc2)cn1 [Example 44]	> 90%	
Fc1ccc(Oc2ncc(-c3ccn4nncc4c3)cn2)cc1 [Example 187]	> 90%	
O=C1CCN(c2ccc(Cc3cccc(OC(F)(F)F)c3)cc2)C(=O)N1 [Example 339]	70 to 90%	
O=c1ccc(-c2cnc(Oc3cc(F)ccc3F)nc2)n[nH]1 [Example 108]	> 90%	
Fc1ccc(F)c(Oc2ncc(-c3ccc4nccn4c3)cn2)c1 [Example 166]		> 90%
O=C1CCC(c2cnc(Oc3c(F)cccc3F)nc2)=NN1 [Example 104]	> 90%	
Fc1ccc(Oc2ncc(-c3ccc4nccn4n3)cn2)cc1 [Example 126]	> 90%	
Cc1ccc(-c2cnc(Oc3cccc(F)c3)nc2)nn1 [Example 21]	> 90%	
COc1cc(-c2cnc(Oc3ccccc3)nc2)ccn1 [Example 23]	> 90%	
Cc1c(-c2cnc(Oc3ccccc3F)nc2)ccc2nccn12 [Example 199]	> 90%	
Fc1cccc(Oc2ncc(-c3ccc4nncn4n3)cn2)c1 [Example 291]	> 90%	
c1ccc(Oc2ncc(-c3ccc4cnccc4c3)cn2)cc1 [Example 251]	> 90%	
O=C1CCN(c2ccc(OC(F)(F)F)cc2)C(=O)N1 [Example 319]	50 to 70%	
Cc1ncccc1-c1cnc(Oc2cccc(F)c2)nc1 [Example 47]	> 90%	
COc1nc(Oc2ccccc2)ncc1-c1cccc2c1CC(=O)N2 [Example 273]	> 90%	
